Test results: patent US6759385B1, “Methods to treat undesirable immune responses” (Regents of the University of Minnesota, priority 1997, dated 2004)
Values joined by “and” are separate entries in the source; they are usually repeats but may differ in a detail not shown here. Identical values can stand only once.

Key:
Type in all cases: in vivo, mouse
[1] = system: established EMG in B6 mice; assay: Subcutaneous treatment, post-priming protocol, established EMG (Example IV); conditions: at 44 weeks, s.c. post-priming protocol
Method: (§1) B6 mice (Jackson Laboratory, Bar Harbor, Me.) were injected s.c. with 100 μl of PBS containing increasing amounts of a pool of the same amount in weight of each of the three epitope peptides Tα150-169, Tα180-200 and Tα360-378 (‘peptide pool’), or 200 μg of Tα150-169 alone, or 100 μl of PBS containing 0.1% Triton X-100 and 10 μg of solubilized TAChR. Two different treatment schedules were used, referred to as prevention and post-priming protocols. In the prevention protocol, the peptides or solubilized TAChR were administered twice per week for 14 weeks, starting 2 weeks before the beginning of the immunization with TAChR. In the post-priming protocol, peptides or solubilized TAChR were administered twice per week for […], starting 8 weeks after the beginning of the TAChR immunization. Control mice received 100 μl of peptide-free PBS, following the same schedules.
(§2) Immunization 8-10 week old mice were immunized by s.c. injections, along the back and at the base of the tail, of TAChR (a total of 50 μg in 100 μl of PBS for each immunization) emulsified in an equal volume of CFA for the first injection, and IFA for the following two boosts. The mice were injected for a total of three times at 3-4 week intervals. At the end of the observation period, the mice received a third boost, and were sacrificed 5-7 days later. Control mice were injected with clean PBS in the appropriate adjuvant.
Evaluation of the symptoms of EMG The EMG symptoms were quantified using a forced exercise test sensitized by i.p. injection of a minute amount of pancuronium bromide (0.03 mg/kg) just before the test (Karachunski et al., 1995). The mouse hangs from a grid suspended above a soft padding, and the time it takes the mouse to fall three times (‘holding time’) was measured. The test is parametric, and gives a quantitative assessment of the mouse weakness. The myasthenic nature of the weakness was verified by injecting i.p. edrophonium chloride (Reversol, Organon, West Orange, N.J.), which is a cholinesterase inhibitor. […] The mice were tested without knowledge of their treatment. […]

[2] = system: EMG in B6 mice immunized with TAChR; assay: Subcutaneous tolerization, prevention protocol, EMG symptoms (Example IV)
Method: as §1, §2
Evaluation of the symptoms of EMG The EMG symptoms were quantified using a forced exercise test sensitized by i.p. injection of a minute amount of pancuronium bromide (0.03 mg/kg) just before the test (Karachunski et al., 1995). The mouse hangs from a grid suspended above a soft padding, and the time it takes the mouse to fall three times (‘holding time’) was measured. The test is parametric, and gives a quantitative assessment of the mouse weakness. The myasthenic nature of the weakness was verified by injecting i.p. edrophonium chloride (Reversol, Organon, West Orange, N.J.), which is a cholinesterase inhibitor. […] The mice were tested without knowledge of their treatment.
The holding time of normal mice was 10.4±2.1 minutes (n=99). Mice with holding times of 8 minutes or longer were considered normal. Mice with holding times less than 6.2 minutes (the holding time of normal mice minus two SD) were considered to have fully developed EMG. Holding times of 6.2-8 minutes were considered to potentially indicate initial EMG. Normal or sham-immunized mice had occasionally holding times of 6.2-8 minutes, but never less than 6.2 minutes. Paralyzed mice and mice that died of respiratory paralysis are indicated as having holding time of 0 minutes.

[3] = system: EMG in B6 mice immunized with TAChR; assay: Nasal tolerization, EMG symptoms by pancuronium-sensitized inverted hang test (Example I)
Method: Mice and Induction of Tolerance. B6 mice were purchased from Jackson Laboratory (Bar Harbor, Me.) and housed at the animal facility of the University of Minnesota. After light anesthesia by i.m. injection of Ketaset (100 mg/kg; Alveco Co., Inc., Fort Dodge, Iowa), the mice received into both nostrils a total of 25 μl of PBS containing 50 μg of peptide Tα150-169, either alone or pooled with equimolar amounts of peptides Tα180-200 and Tα360-378 (referred to as “peptide pool” or “αpool” ). The dose was based on the results of an experiment in which increasing amounts of peptide α150-169 were used (50 μg, 100 μg, 200 μg, 400 μg and 800 μg). […] The tolerogen was administered as a solution instilled into the nostrils, a method of delivery which allowed accurate administration of a defined amount of solution.
In protocol A, peptides or peptide-free PBS were administered two weeks before the first TAChR immunization, and then three more times, on the same day as the three immunizations with TAChR (at one month intervals, see below). In protocol B, peptides or peptide-free PBS were administered weekly, starting two weeks before beginning of the immunization with TAChR, for a total of 14 treatments (two before and 12 during TAChR immunization).
Immunization. Eight-ten week old mice were immunized by subcutaneous injections, along the back and at the base of the tail, with solubilized TAChR (50 μg), peptide Tα150-169 (100 μg), or the peptide pool (100 μg of each peptide). The mice were boosted twice at 4 week intervals with the same amouni of antigen. The antigen solutions (in 100 μl PBS) were emulsified with an equal volume of complete Freund's adjuvant (FA) for the first injection, and with incomplete FA for the boosts. Control mice were injected with PBS emulsified in the appropriate adjuvant.
Evaluation of the Clinical Symptoms of EMG. EMG symptoms were quantified by a forced exercise using the inverted hang technique, sensitized by administration of a minute amount of pancuronium bromide (0-03 mg/kg i.p.) just prior to the beginning of the test (Karachunski et al., 1995). The mice hang from a grid, and the time it takes for the mouse to release its hold and fall three times (“holding time”) was measured. The test was performed on the day of the first nasal administration, on the day before each immunization, and 7-14 days after the third immunization, just before sacrificing the animal. This test is parametric, and gives a quantitative assessment of the severity of the weakness.
The holding time of normal mice was 10.4±2.1 minutes (n=99). […]

serum anti-TAChR Ab = assay: Anti-TAChR IgG and IgG1 radioimmunoprecipitation assay (Example IV)
Method: Anti-TAChR Ab assay. Sera was obtained from each mouse after each clinical testing and at the end of the observation period (12 weeks after beginning of the TAChR immunization). The serum concentration of anti-TAChR IgG and IgGI was determined by radioimmunoprecipitation assay, using TAChR solubilized in Triton X-100 and labeled by the binding of ^125I-α-BTX (Bellone et al., 1991a). As a secondary Ab, either rabbit anti-mouse IgG produced, or goat anti-mouse IgG1 (Sigma, St. Louis, Mo.), was used. The anti-TAChR Ab concentration is expressed as μM precipitated ^125I-α-BTX binding sites.
Two types of experiments were carried out. In one of them the total anti-TAChR Ab in the sera of individual mice, obtained 8, 10 and 12 weeks after the first TAChR immunization, was determined. In the other, the anti-TAChR IgG1 concentration was determined, as well as the total anti-TAChR IgG concentration, in sera obtained at the end of the observation period. For this second assay pooled sera from five mice that had received identical treatments was used.

[4] = s.c. 200 μg/injection, second experiment
[5] = s.c. 200 μg, pooled sera of five mice

peptide Tα150-169: synthetic peptide corresponding to residues 150-169 of the TAChR α subunit (TYDGTKVSISPESDRPDLST; UniProt P02710 174-193, looked up, fragment)
mice with holding times of 6.2 or less [1]: 6% | mice with EMG at 8 weeks [2, 4]: One mouse | prevention of EMG [2, 4]: prevented EMG effectively | holding times compared with sham-tolerized groups ([2]; s.c. prevention protocol): significantly longer holding times | mice that developed EMG ([3]; nasal protocol A (monthly), TAChR-immunized B6 mice): 42% | mice with detectable weakness ([3]; nasal protocol B (weekly), TAChR-immunized B6 mice): none | protection from EMG, dose finding ([3]; nasal, lowest dose 50 μg of 50-800 μg): satisfactory level of protection | holding time compared with sham-tolerized mice ([3]; nasal, protocols A and B): significantly longer holding times | reduction of anti-TAChR IgG1 (serum anti-TAChR Ab; 200 μg, p<0.008): very modest reduction | anti-TAChR Ab concentrations compared with sham-treated groups (serum anti-TAChR Ab; at 12 weeks, s.c. prevention protocol): significantly and substantially lower | IgG1 anti-TAChR (serum anti-TAChR Ab; [5]): 0.22 ± 0.005 µM and 0.27 ± 0.01 µM | Total IgG anti-TAChR (serum anti-TAChR Ab; [5]): 0.47 ± 0.01 µM and 0.28 ± 0.015 µM
